{"source": "patent US11298298B2", "about": "“Method for producing nonaqueous composition for external use on skin” (CHANEL PARFUMS BEAUTE, priority 2017, dated 2022)", "assay": "Particle size measurement by dynamic light scattering", "format": "physicochemical", "settings": "steps (a) to (c) without palmitoyl-L-carnitine chloride", "method": "[1] Particle Size Measurement\nThe particle size of particles contained in the nonaqueous composition for external use on the skin 1 week after preparation was measured by the dynamic light scattering method. Specifically, the measurement was performed on the number mode using a nanoparticle analysis system (Zetasizer Nano ZSP model manufactured by Malvern Instruments Ltd.)."}
{"substance": "sucrose erucic acid ester", "values": [{"measurement": "Particle size of composition containing particles of the surfactant alone", "result": "about 2.5 nm"}]}
